The record followed here is patent publication US9102665B2, “Cysteinyl leukotriene antagonists” (Sun Pharma Advanced Research Company Ltd., priority 2011, dated 2015).

The target in this assay is T1, Leukotriene, Cysteinyl CysLT1 (Cavia porcellus, UniProt Q2NNR5).
T1 construct: from tissue; host or cells: guinea pig lung membrane
T1 sequence (Q2NNR5 1-340): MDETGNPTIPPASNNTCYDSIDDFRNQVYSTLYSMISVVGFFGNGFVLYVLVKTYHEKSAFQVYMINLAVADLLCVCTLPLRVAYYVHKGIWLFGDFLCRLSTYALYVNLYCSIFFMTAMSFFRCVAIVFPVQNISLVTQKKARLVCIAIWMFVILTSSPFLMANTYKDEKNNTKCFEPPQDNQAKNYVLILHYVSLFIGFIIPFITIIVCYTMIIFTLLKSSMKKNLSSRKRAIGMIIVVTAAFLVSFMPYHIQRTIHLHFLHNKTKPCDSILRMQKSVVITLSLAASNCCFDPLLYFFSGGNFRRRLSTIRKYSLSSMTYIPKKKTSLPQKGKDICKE
The experiment in a line: receptor radio-ligand-binding assay (Tritiated LTD4 as the ligand), Guinea pig lung membrane. The settings on record: 0.5 h, 0.2 nM 3H LTD4, Guinea pig lung membrane; for inhibition at 0.001 µM: 1 nM test compound, read-out: % Inhbition (in nM) 1; for inhibition at 0.003 µM: 3 nM test compound, read-out: % Inhbition (in nM) 3; for inhibition at 0.01 µM: 10 nM test compound, read-out: % Inhbition (in nM) 10. As for the experimental part: The primary in-vitro biological screening for the compounds carried-out involving receptor radio-ligand-binding assay (Tritiated LTD4 as the ligand) by known methods described in literature [a). Mong et al. European Journal of Pharmacology (102); 1984 1-11b). Jones et al; Journal of Physiology & Pharmacology (73); 1994, 191-201 c). MDS Pharma Services: 250460 Leukotriene, Cysteinyl CysLT1]. Accordingly, Guinea pig lung membrane (100 ug) is incubated with 0.2 nM 3H LTD4 in presence of Reference Standard/Test item/Vehicle Control. Non Specific Binding is determined by incubating the membrane with 0.2 nM 3H LTD4 in presence of 1 uM of unlabeled LTD4. The samples are incubated at 26° C. for 30 minutes and are vacuum filtered on a membrane to separate the bound and free radioligand. The membrane is counted in a liquid scintillation counter to calculate the bound radioactivity. Specific Binding in Vehicle treated and Reference Standard/Test item treated set is compared to evaluate the % Inhibition values. Some of the compounds have shown >50% inhibition in the presence of ≦3 nano-molar concentration of the compounds of present invention as shown in the following table.

`O=C(O)c1ccccc1CCC1(c2cccc(/C=C/c3ccc4ccc(Cl)cc4n3)c2)OCCO1` [Ib.4, 2-[2-(2-{3-[(E)-2-(7-Chloro-quinolin-2yl)-vinyl]phenyl}-[1,3]dioxolan-2yl)-ethyl]-benzoic acid]: the inhibition at 0.001 µM worked out at 33%, the inhibition at 0.003 µM turned out to be 41% and the inhibition at 0.01 µM is 62%.

With `Cc1oc(=O)oc1COC(=O)c1ccccc1CCC1(c2cccc(/C=C/c3ccc4ccc(Cl)cc4n3)c2)OCCO1` [Ib.11], the inhibition at 0.001 µM was 32%, the inhibition at 0.003 µM turned out to be 60% and the inhibition at 0.01 µM was 74%.

For `CC1(C)COC(CCc2ccccc2C(=O)O)(c2cccc(/C=C/c3ccc4ccc(Cl)cc4n3)c2)OC1` [Ib.26], the inhibition at 0.001 µM was found to be 34%, the inhibition at 0.003 µM amounted to 53% and the inhibition at 0.01 µM amounted to 56%.

Turning to `O=C(c1ccccc1CCC1(c2cccc(/C=C/c3ccc4ccc(Cl)cc4n3)c2)OCCO1)N1CCCC1` [Ib.36, {2-[2-(2-{3-[(E)-2-(7-Chloro-quinolin-2-yl)-vinyl]-phenyl}-[1,3]-dioxolan-2-yl)-ethyl]-phenyl}-pyrrolidin-1-yl-methanone], the inhibition at 0.001 µM was 49%, the inhibition at 0.003 µM stood at 91% and the inhibition at 0.01 µM was found to be 99%.

As for `O=C(O)c1ccccc1SCC1(c2cccc(/C=C/c3ccc4ccc(Cl)cc4n3)c2)OCCO1` [Ib.42], the inhibition at 0.001 µM was found to be 31%, the inhibition at 0.003 µM came to 41% and the inhibition at 0.01 µM was 49%.

With `O=C(O)c1ccccc1CCC1(c2cccc(/C=C/c3ccc4ccc(Cl)cc4n3)c2)OCCS1` (stereo not drawn) [Ib.59], the inhibition at 0.001 µM came to 64%, the inhibition at 0.003 µM amounted to 74% and the inhibition at 0.01 µM is 97%.

In the case of `COc1ccc(CCC2(c3cccc(/C=C/c4ccc5ccc(Cl)cc5n4)c3)OCCO2)c(C(=O)O)c1` [Ib.67], the inhibition at 0.001 µM was found to be 72%, the inhibition at 0.003 µM was 86% and the inhibition at 0.01 µM came to 89%.

As for `COc1ccc(C=CC2(c3cccc(/C=C/c4ccc5ccc(Cl)cc5n4)c3)OCCO2)c(C(=O)O)c1` [Ib.79], the inhibition at 0.001 µM was determined as 67%, the inhibition at 0.003 µM is 78% and the inhibition at 0.01 µM turned out to be 86%.

`CCOc1ccc(CCC2(c3cccc(/C=C/c4ccc5ccc(Cl)cc5n4)c3)OCCO2)c(C(=O)O)c1` [Ib.86]: the inhibition at 0.001 µM was 6%, the inhibition at 0.003 µM stood at 38% and the inhibition at 0.01 µM amounted to 53%.

Turning to `C#CCOc1ccc(CCC2(c3cccc(/C=C/c4ccc5ccc(Cl)cc5n4)c3)OCCO2)c(C(=O)O)c1` [Ib.93], the inhibition at 0.001 µM came to 14%, the inhibition at 0.003 µM came out at 20% and the inhibition at 0.01 µM came to 60%.

Turning to `O=C(O)c1cc(Cl)ccc1CCC1(c2cccc(/C=C/c3ccc4ccc(Cl)cc4n3)c2)OCCO1` [Ib.111], the inhibition at 0.001 µM was found to be 65%, the inhibition at 0.003 µM amounted to 84% and the inhibition at 0.01 µM amounted to 91%.

Take `COc1cc(C(=O)O)c(CCC2(c3cccc(/C=C/c4ccc5ccc(Cl)cc5n4)c3)OCCO2)c(OC)c1OC` [Ib.113]: the inhibition at 0.001 µM was 48%, the inhibition at 0.003 µM stood at 68% and the inhibition at 0.01 µM turned out to be 85%.

`COc1cc(C(=O)O)c(CCC2(c3cccc(/C=C/c4ccc5ccc(Cl)cc5n4)c3)OCCCO2)cc1[N+](=O)[O-]` [Ib.123]: the inhibition at 0.001 µM turned out to be 58%, the inhibition at 0.003 µM is 81% and the inhibition at 0.01 µM was 86%.

Consider `O=C(O)c1cc2c(cc1CCC1(c3cccc(/C=C/c4ccc5ccc(Cl)cc5n4)c3)OCCCO1)OCO2` [Ib.133], for which the inhibition at 0.001 µM came to 41%, the inhibition at 0.003 µM was determined as 57% and the inhibition at 0.01 µM amounted to 80%.

Consider `COc1ccc(CCC2(c3cccc(/C=C/c4ccc5ccc(Cl)cc5n4)c3)OCCO2)c(-c2nnn[nH]2)c1` [Ib.135], for which the inhibition at 0.001 µM was determined as 56%, the inhibition at 0.003 µM was 77% and the inhibition at 0.01 µM was found to be 86%.

Regarding `O=C(O)c1cc2c(cc1CCC1(c3cccc(/C=C/c4ccc5ccc(Cl)cc5n4)c3)OCCO1)OCCO2` [Ib.139], the inhibition at 0.001 µM was 28%, the inhibition at 0.003 µM is 52% and the inhibition at 0.01 µM amounted to 82%.

Consider `O=C(O)c1ccc(C(=O)O)c(CCC2(c3cccc(/C=C/c4ccc5ccc(Cl)cc5n4)c3)OCCO2)c1` [Ib.142], for which the inhibition at 0.001 µM is 15%, the inhibition at 0.003 µM was 49% and the inhibition at 0.01 µM is 80%.

As for `CC(ON=C(CCc1ccccc1C(C)(C)O)c1cccc(/C=C/c2ccc3ccc(Cl)cc3n2)c1)C(=O)O` (stereo not drawn) [Ib.148], the inhibition at 0.001 µM turned out to be 20%, the inhibition at 0.003 µM is 16% and the inhibition at 0.01 µM is 31%.
